# Reference: the supplement of paper PMC8967900
# What was measured:
# Experiment in all cases: selective drug sensitivity score (sDSS, relative to normal bone marrow) (sDSS (score)); higher = more potent and effective on the cell line relative to normal bone marrow cells
# Settings in all cases: 72 h
# SUP-B15 = test system: SUP-B15
# MOLT-14 = test system: MOLT-14
# MHH-CALL-4 = test system: MHH-CALL-4
# PEER = test system: PEER
# P12-ICHIKAWA = test system: P12-ICHIKAWA
# TMD5 = test system: TMD5
# TANOUE = test system: TANOUE
# KASUMI-2 = test system: KASUMI-2
# ALL-PO = test system: ALL-PO
# COG-LL-317 = test system: COG-LL-317
# COG-LL-319h = test system: COG-LL-319h
# NALM-16 = test system: NALM-16
# NALM-6 = test system: NALM-6
# MOLT-4 = test system: MOLT-4
# COG-LL-332h = test system: COG-LL-332h
# PF-382 = test system: PF-382
# KASUMI-9 = test system: KASUMI-9
# COG-LL-402h = test system: COG-LL-402h
# REH = test system: REH
# HAL-01 = test system: HAL-01
# 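Further: ALL cell lines in 384-well plates, five doses spanning 10,000-fold, each plate scaled between vehicle and 100 µmol/L benzalkonium chloride controls, sDSS an adapted area-under-curve metric.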
smiles,measurement,setting,value
Nc1ncnc2c1nc(Cl)n2[C@@H]1O[C@H](CO)[C@@H](O)[C@H]1O [8-chloro-adenosine] (top concentration 50000 nM),selective drug sensitivity score,SUP-B15,7.3
same,selective drug sensitivity score,MOLT-14,0.3
same,selective drug sensitivity score,MHH-CALL-4,1.6
same,selective drug sensitivity score,PEER,0.5
same,selective drug sensitivity score,P12-ICHIKAWA,-2.4
same,selective drug sensitivity score,TMD5,-2.1
same,selective drug sensitivity score,TANOUE,-5.3
same,selective drug sensitivity score,KASUMI-2,-1.8
same,selective drug sensitivity score,ALL-PO,1.6
same,selective drug sensitivity score,COG-LL-317,6
same,selective drug sensitivity score,COG-LL-319h,4.3
same,selective drug sensitivity score,NALM-16,-3.1
same,selective drug sensitivity score,NALM-6,1.1
same,selective drug sensitivity score,MOLT-4,3.3
same,selective drug sensitivity score,COG-LL-332h,0.9
same,selective drug sensitivity score,PF-382,-1.9
same,selective drug sensitivity score,KASUMI-9,2.4
same,selective drug sensitivity score,COG-LL-402h,3.1
same,selective drug sensitivity score,REH,-0.6
same,selective drug sensitivity score,HAL-01,-1.5
COc1ccc(S(=O)(=O)Nc2cccnc2Nc2ccc(O)cc2)cc1 [ABT-751] (top concentration 10000 nM),selective drug sensitivity score,SUP-B15,10.8
same,selective drug sensitivity score,MOLT-14,11.9
same,selective drug sensitivity score,MHH-CALL-4,3.52
same,selective drug sensitivity score,PEER,15.5
same,selective drug sensitivity score,P12-ICHIKAWA,10.4
same,selective drug sensitivity score,TMD5,7.32
same,selective drug sensitivity score,TANOUE,-3.48
same,selective drug sensitivity score,KASUMI-2,4.72
same,selective drug sensitivity score,ALL-PO,13.3
same,selective drug sensitivity score,COG-LL-317,11.4
same,selective drug sensitivity score,COG-LL-319h,10.7
same,selective drug sensitivity score,NALM-16,11.5
same,selective drug sensitivity score,NALM-6,10.7
same,selective drug sensitivity score,MOLT-4,11.1
same,selective drug sensitivity score,COG-LL-332h,11.1
same,selective drug sensitivity score,PF-382,9.42
same,selective drug sensitivity score,KASUMI-9,10.4
same,selective drug sensitivity score,COG-LL-402h,8.92
same,selective drug sensitivity score,REH,15.4
same,selective drug sensitivity score,HAL-01,11.7
CC1CCC(n2c3cnccc3c3cnc(Nc4ccc5c(n4)CCN(C(=O)CO)C5)nc32)CC1 (stereo not given) [AMG-925] (top concentration 1000 nM),selective drug sensitivity score,SUP-B15,11.7
same,selective drug sensitivity score,MOLT-14,6.14
same,selective drug sensitivity score,MHH-CALL-4,3.54
same,selective drug sensitivity score,PEER,5.54
same,selective drug sensitivity score,P12-ICHIKAWA,3.84
same,selective drug sensitivity score,TMD5,-0.66
same,selective drug sensitivity score,TANOUE,1.94
same,selective drug sensitivity score,KASUMI-2,-0.66
same,selective drug sensitivity score,ALL-PO,11.4
same,selective drug sensitivity score,COG-LL-317,1.44
same,selective drug sensitivity score,COG-LL-319h,6.44
same,selective drug sensitivity score,NALM-16,6.34
same,selective drug sensitivity score,NALM-6,4.74
same,selective drug sensitivity score,MOLT-4,2.34
same,selective drug sensitivity score,COG-LL-332h,4.34
same,selective drug sensitivity score,PF-382,5.44
same,selective drug sensitivity score,KASUMI-9,8.24
same,selective drug sensitivity score,COG-LL-402h,6.14
same,selective drug sensitivity score,REH,3.44
same,selective drug sensitivity score,HAL-01,3.44
O=C(NC1CCNCC1)c1n[nH]cc1NC(=O)c1c(Cl)cccc1Cl [AT7519] (top concentration 10000 nM),selective drug sensitivity score,SUP-B15,-4.56
same,selective drug sensitivity score,MOLT-14,-3.86
same,selective drug sensitivity score,MHH-CALL-4,-1.26
same,selective drug sensitivity score,PEER,-3.56
same,selective drug sensitivity score,P12-ICHIKAWA,-8.66
same,selective drug sensitivity score,TMD5,-4.16
same,selective drug sensitivity score,TANOUE,-17.8
same,selective drug sensitivity score,KASUMI-2,-4.46
same,selective drug sensitivity score,ALL-PO,-14.4
same,selective drug sensitivity score,COG-LL-317,-4.06
same,selective drug sensitivity score,COG-LL-319h,-4.26
same,selective drug sensitivity score,NALM-16,-8.16
same,selective drug sensitivity score,NALM-6,-2.76
same,selective drug sensitivity score,MOLT-4,-7.66
same,selective drug sensitivity score,COG-LL-332h,-5.06
same,selective drug sensitivity score,PF-382,-7.16
same,selective drug sensitivity score,KASUMI-9,-3.66
same,selective drug sensitivity score,COG-LL-402h,-3.66
same,selective drug sensitivity score,REH,-2.16
same,selective drug sensitivity score,HAL-01,-14.6
Cc1cc2c(C(C)C)c(O)c(O)c(C=O)c2c(O)c1-c1c(C)cc2c(C(C)C)c(O)c(O)c(C=O)c2c1O [AT-101] (top concentration 100000 nM),selective drug sensitivity score,SUP-B15,5.78
same,selective drug sensitivity score,MOLT-14,4.98
same,selective drug sensitivity score,MHH-CALL-4,3.98
same,selective drug sensitivity score,PEER,4.18
same,selective drug sensitivity score,P12-ICHIKAWA,2.78
same,selective drug sensitivity score,TMD5,0.18
same,selective drug sensitivity score,TANOUE,0.98
same,selective drug sensitivity score,KASUMI-2,-0.32
same,selective drug sensitivity score,ALL-PO,8.98
same,selective drug sensitivity score,COG-LL-317,8.08
same,selective drug sensitivity score,COG-LL-319h,4.48
same,selective drug sensitivity score,NALM-16,0.98
same,selective drug sensitivity score,NALM-6,6.38
same,selective drug sensitivity score,MOLT-4,1.98
same,selective drug sensitivity score,COG-LL-332h,4.08
same,selective drug sensitivity score,PF-382,1.98
same,selective drug sensitivity score,KASUMI-9,6.48
same,selective drug sensitivity score,COG-LL-402h,4.18
same,selective drug sensitivity score,REH,5.28
same,selective drug sensitivity score,HAL-01,0.58
N[C@@H]1CCCN(c2c(/C=C3\SC(=O)NC3=O)cccc2-c2ccccc2)C1 [AZD1208] (top concentration 10000 nM),selective drug sensitivity score,SUP-B15,-4.4
same,selective drug sensitivity score,MOLT-14,1.5
same,selective drug sensitivity score,MHH-CALL-4,3.9
same,selective drug sensitivity score,PEER,-2.7
same,selective drug sensitivity score,P12-ICHIKAWA,-4
same,selective drug sensitivity score,TMD5,3.1
same,selective drug sensitivity score,TANOUE,-4.1
same,selective drug sensitivity score,KASUMI-2,-4.4
same,selective drug sensitivity score,ALL-PO,8.5
same,selective drug sensitivity score,COG-LL-317,-4.4
same,selective drug sensitivity score,COG-LL-319h,-4.4
same,selective drug sensitivity score,NALM-16,-3.2
same,selective drug sensitivity score,NALM-6,-4.4
same,selective drug sensitivity score,MOLT-4,-4.4
same,selective drug sensitivity score,COG-LL-332h,-2.9
same,selective drug sensitivity score,PF-382,-3.8
same,selective drug sensitivity score,KASUMI-9,-1.7
same,selective drug sensitivity score,COG-LL-402h,-4.4
same,selective drug sensitivity score,REH,5.5
same,selective drug sensitivity score,HAL-01,6.3
Cc1ncc(-c2ccnc(Nc3ccc(S(C)(=O)=O)cc3)n2)n1C(C)C [AZD-5438] (top concentration 10000 nM),selective drug sensitivity score,SUP-B15,9.74
same,selective drug sensitivity score,MOLT-14,3.64
same,selective drug sensitivity score,MHH-CALL-4,-6.86
same,selective drug sensitivity score,PEER,3.04
same,selective drug sensitivity score,P12-ICHIKAWA,-0.36
same,selective drug sensitivity score,TMD5,-5.96
same,selective drug sensitivity score,TANOUE,-9.96
same,selective drug sensitivity score,KASUMI-2,-0.86
same,selective drug sensitivity score,ALL-PO,-6.06
same,selective drug sensitivity score,COG-LL-317,-0.56
same,selective drug sensitivity score,COG-LL-319h,8.54
same,selective drug sensitivity score,NALM-16,-6.16
same,selective drug sensitivity score,NALM-6,1.44
same,selective drug sensitivity score,MOLT-4,-5.46
same,selective drug sensitivity score,COG-LL-332h,-0.16
same,selective drug sensitivity score,PF-382,-2.46
same,selective drug sensitivity score,KASUMI-9,-0.26
same,selective drug sensitivity score,COG-LL-402h,-0.46
same,selective drug sensitivity score,REH,1.54
same,selective drug sensitivity score,HAL-01,-5.96
CCN1CCN(Cc2ccc(Nc3ncc(F)c(-c4cc(F)c5nc(C)n(C(C)C)c5c4)n3)nc2)CC1 [Abemaciclib] (top concentration 2500 nM),selective drug sensitivity score,SUP-B15,6.74
same,selective drug sensitivity score,MOLT-14,1.44
same,selective drug sensitivity score,MHH-CALL-4,-1.76
same,selective drug sensitivity score,PEER,-1.96
same,selective drug sensitivity score,P12-ICHIKAWA,-4.06
same,selective drug sensitivity score,TMD5,-9.66
same,selective drug sensitivity score,TANOUE,-9.66
same,selective drug sensitivity score,KASUMI-2,1.74
same,selective drug sensitivity score,ALL-PO,-3.36
same,selective drug sensitivity score,COG-LL-317,-2.36
same,selective drug sensitivity score,COG-LL-319h,6.64
same,selective drug sensitivity score,NALM-16,-6.46
same,selective drug sensitivity score,NALM-6,-4.46
same,selective drug sensitivity score,MOLT-4,-1.96
same,selective drug sensitivity score,COG-LL-332h,-1.66
same,selective drug sensitivity score,PF-382,-1.26
same,selective drug sensitivity score,KASUMI-9,5.44
same,selective drug sensitivity score,COG-LL-402h,1.74
same,selective drug sensitivity score,REH,-0.06
same,selective drug sensitivity score,HAL-01,-3.06
Cn1ncc(Cl)c1-c1cc(C(=O)N[C@H](CN)Cc2cccc(F)c2)sc1Cl [Afuresertib] (top concentration 1000 nM),selective drug sensitivity score,SUP-B15,5.66
same,selective drug sensitivity score,MOLT-14,0.16
same,selective drug sensitivity score,MHH-CALL-4,5.06
same,selective drug sensitivity score,PEER,-1.34
same,selective drug sensitivity score,P12-ICHIKAWA,-0.44
same,selective drug sensitivity score,TMD5,-2.34
same,selective drug sensitivity score,TANOUE,-1.94
same,selective drug sensitivity score,KASUMI-2,10.2
same,selective drug sensitivity score,ALL-PO,4.26
same,selective drug sensitivity score,COG-LL-317,5.26
same,selective drug sensitivity score,COG-LL-319h,7.76
same,selective drug sensitivity score,NALM-16,1.46
same,selective drug sensitivity score,NALM-6,4.66
same,selective drug sensitivity score,MOLT-4,6.26
same,selective drug sensitivity score,COG-LL-332h,2.86
same,selective drug sensitivity score,PF-382,2.66
same,selective drug sensitivity score,KASUMI-9,1.86
same,selective drug sensitivity score,COG-LL-402h,4.56
same,selective drug sensitivity score,REH,3.56
same,selective drug sensitivity score,HAL-01,3.96
